Results taken from PubChem BioAssay AID1963843 (Molecular Pharmacology Branch, DTP, NCI, 2024).

Tested on: 616215-338-R-J1-PDC complex spheroid viability
Assay: Anticancer human tumor 616215-338-R-J1-PDC patient-derived colon adenocarcinoma cell line growth inhibition [POLQ]
Conditions: for IC50: curve of first compound; for viability, T/C: stronger effect = lower value
Method in brief: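 Complex spheroid viability model combining PDC tumour cells with endothelial (HUVEC) and MSC stromal cells. Novobiocin, ART-558 or RP6685 were tested singly and in combination with standard and investigational anticancer drugs. Each was titrated in half-log steps from near clinical Cmax, or from 10 microM where Cmax was unknown.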

[1] = second compound 0.0316 µM, first compound 0.0316 µM
[2] = second compound 0.0316 µM, first compound 0.1 µM
[3] = second compound 0.0316 µM, first compound 0.316 µM
[4] = second compound 0.0316 µM, first compound 1 µM
[5] = second compound 0.0316 µM, first compound 3.16 µM
[6] = second compound 0.0316 µM, first compound 10 µM
[7] = second compound 0.1 µM, first compound 0.0316 µM
[8] = second compound 0.1 µM, first compound 0.1 µM
[9] = second compound 0.1 µM, first compound 0.316 µM
[10] = second compound 0.1 µM, first compound 1 µM
[11] = second compound 0.1 µM, first compound 3.16 µM
[12] = second compound 0.1 µM, first compound 10 µM
[13] = second compound 0.316 µM, first compound 0.0316 µM
[14] = second compound 0.316 µM, first compound 0.1 µM
[15] = second compound 0.316 µM, first compound 0.316 µM
[16] = second compound 0.316 µM, first compound 1 µM
[17] = second compound 0.316 µM, first compound 3.16 µM
[18] = second compound 0.316 µM, first compound 10 µM
[19] = second compound 1 µM, first compound 0.0316 µM
[20] = second compound 1 µM, first compound 0.1 µM
[21] = second compound 1 µM, first compound 0.316 µM
[22] = second compound 1 µM, first compound 1 µM
[23] = second compound 1 µM, first compound 3.16 µM
[24] = second compound 1 µM, first compound 10 µM
[25] = second compound 3.16 µM, first compound 0.0316 µM
[26] = second compound 3.16 µM, first compound 0.1 µM
[27] = second compound 3.16 µM, first compound 0.316 µM
[28] = second compound 3.16 µM, first compound 1 µM
[29] = second compound 3.16 µM, first compound 3.16 µM
[30] = second compound 3.16 µM, first compound 10 µM
[31] = second compound 10 µM, first compound 0.0316 µM
[32] = second compound 10 µM, first compound 0.1 µM
[33] = second compound 10 µM, first compound 0.316 µM
[34] = second compound 10 µM, first compound 1 µM
[35] = second compound 10 µM, first compound 3.16 µM
[36] = second compound 10 µM, first compound 10 µM
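Further: spheroids exposed to compounds for one week before readout.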
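Wherever viability, T/C is given: percent viability relative to DMSO vehicle wells taken as 100%.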

CC1COCCN1c1cc(-c2ccnn2C)c2ccnc(-c3ccn[nH]3)c2n1 (stereo unspecified) + Cc1cccc(N(C)C(=O)C2C(O)CCN2c2nc(C)cc(C(F)(F)F)c2C#N)c1
IC50 (second compound 0.0316 µM): > 10 µM
IC50 (second compound 0.1 µM): > 10 µM
IC50 (second compound 0.316 µM): > 10 µM
IC50 (second compound 1 µM): 2.79 µM
IC50 (second compound 3.16 µM): 1.99 µM
IC50 (second compound 10 µM): 1.24 µM
viability, T/C [1]: 104%
viability, T/C [2]: 110%
viability, T/C [3]: 76.7%
viability, T/C [4]: 66.2%
viability, T/C [5]: 49.4%
viability, T/C [6]: 50.6%
viability, T/C [7]: 103%
viability, T/C [8]: 100%
viability, T/C [9]: 69.5%
viability, T/C [10]: 61.8%
viability, T/C [11]: 50.1%
viability, T/C [12]: 50.5%
viability, T/C [13]: 107%
viability, T/C [14]: 91.1%
viability, T/C [15]: 66.3%
viability, T/C [16]: 57.4%
viability, T/C [17]: 52.4%
viability, T/C [18]: 53%
viability, T/C [19]: 101%
viability, T/C [20]: 91%
viability, T/C [21]: 71.9%
viability, T/C [22]: 57.1%
viability, T/C [23]: 53%
viability, T/C [24]: 40.8%
viability, T/C [25]: 114%
viability, T/C [26]: 95.2%
viability, T/C [27]: 72.2%
viability, T/C [28]: 54%
viability, T/C [29]: 44.1%
viability, T/C [30]: 47.9%
viability, T/C [31]: 111%
viability, T/C [32]: 90.6%
viability, T/C [33]: 68%
viability, T/C [34]: 49.2%
viability, T/C [35]: 47.5%
viability, T/C [36]: 36.8%

CC1COCCN1c1cc(C2(S(C)(=N)=O)CC2)nc(-c2ccnc3[nH]ccc23)n1 (stereo unspecified) + Cc1cccc(N(C)C(=O)C2C(O)CCN2c2nc(C)cc(C(F)(F)F)c2C#N)c1
IC50 (second compound 0.0316 µM): > 10 µM
IC50 (second compound 0.1 µM): > 10 µM
IC50 (second compound 0.316 µM): > 10 µM
IC50 (second compound 1 µM): > 10 µM
IC50 (second compound 3.16 µM): > 10 µM
IC50 (second compound 10 µM): > 10 µM
viability, T/C [1]: 88.5%
viability, T/C [2]: 104%
viability, T/C [3]: 94.8%
viability, T/C [4]: 99.7%
viability, T/C [5]: 101%
viability, T/C [6]: 69.1%
viability, T/C [7]: 102%
viability, T/C [8]: 95.1%
viability, T/C [9]: 101%
viability, T/C [10]: 101%
viability, T/C [11]: 95.6%
viability, T/C [12]: 68.2%
viability, T/C [13]: 94.9%
viability, T/C [14]: 98.9%
viability, T/C [15]: 96.8%
viability, T/C [16]: 102%
viability, T/C [17]: 89.1%
viability, T/C [18]: 62%
viability, T/C [19]: 113%
viability, T/C [20]: 102%
viability, T/C [21]: 98.2%
viability, T/C [22]: 101%
viability, T/C [23]: 97%
viability, T/C [24]: 69.1%
viability, T/C [25]: 102%
viability, T/C [26]: 96%
viability, T/C [27]: 91.5%
viability, T/C [28]: 104%
viability, T/C [29]: 86.4%
viability, T/C [30]: 74.7%
viability, T/C [31]: 114%
viability, T/C [32]: 111%
viability, T/C [33]: 103%
viability, T/C [34]: 111%
viability, T/C [35]: 95.7%
viability, T/C [36]: 71.7%

COc1ccc([C@@H](O)c2cc(-c3ncnc4cc(N5CCOCC5)ccc34)c(F)cc2Cl)nn1 + Cc1cccc(N(C)C(=O)C2C(O)CCN2c2nc(C)cc(C(F)(F)F)c2C#N)c1
IC50 (second compound 0.0316 µM): > 10 µM
IC50 (second compound 0.1 µM): > 10 µM
IC50 (second compound 0.316 µM): > 10 µM
IC50 (second compound 1 µM): > 10 µM
IC50 (second compound 3.16 µM): > 10 µM
IC50 (second compound 10 µM): > 10 µM
viability, T/C [1]: 97.8%
viability, T/C [2]: 108%
viability, T/C [3]: 94.8%
viability, T/C [4]: 113%
viability, T/C [5]: 101%
viability, T/C [6]: 78.7%
viability, T/C [7]: 92.6%
viability, T/C [8]: 108%
viability, T/C [9]: 108%
viability, T/C [10]: 109%
viability, T/C [11]: 100%
viability, T/C [12]: 72.2%
viability, T/C [13]: 108%
viability, T/C [14]: 108%
viability, T/C [15]: 100%
viability, T/C [16]: 111%
viability, T/C [17]: 109%
viability, T/C [18]: 73.5%
viability, T/C [19]: 114%
viability, T/C [20]: 111%
viability, T/C [21]: 109%
viability, T/C [22]: 122%
viability, T/C [23]: 103%
viability, T/C [24]: 70.5%
viability, T/C [25]: 97.5%
viability, T/C [26]: 104%
viability, T/C [27]: 102%
viability, T/C [28]: 102%
viability, T/C [29]: 105%
viability, T/C [30]: 80.3%
viability, T/C [31]: 112%
viability, T/C [32]: 100%
viability, T/C [33]: 99.8%
viability, T/C [34]: 111%
viability, T/C [35]: 99.8%
viability, T/C [36]: 55.6%
